Laboratory results: publication PMC3647702 (ACS medicinal chemistry letters, 2013)

What was measured:
clade B viruses = test: Neutralization of clade B Env pseudoviruses; assay type: cell-based, HIV-1
clade C viruses = test: Neutralization of clade C Env pseudoviruses; assay type: cell-based, HIV-1
full-length gp120 = full-length gp120 (Human immunodeficiency virus type 1 group M subtype B, UniProt P35961); settings: gp120 binding; cited from earlier work
[1] = test system: HIV-1YU2 virus in CD4 negative Cf2Th-CCR5 cells; settings: cells lacking the CD4 receptor (CD4–CCR5+ Cf2Th cells); cited from earlier work
[2] = test system: 42 Tier 2 clade B and C viruses; settings: read-out: geometric mean titers (GMT) IC50, sensitive strains; cited from earlier work

N=C(N)NC[C@H]1Cc2ccccc2[C@@H]1NC(=O)C(=O)Nc1ccc(Cl)c(F)c1.O=CO [(+)-4]
improvement over (+)-3 based on IC50 titers (clade B viruses): 60% | improvement over (+)-3 based on IC80 titers (clade B viruses): 1.5 fold | neutralization breadth (clade B viruses): 100% | neutralization breadth (clade C viruses): 59%

CC1(C)CC(NC(=O)C(=O)Nc2ccc(Cl)cc2)CC(C)(C)N1 [Compound 1, NBD-556]
ΔH (full-length gp120): -24.5 kcal/mol | −TΔS (full-length gp120): 17.1 kcal/mol | CD4-independent viral entry [1]: agonists of CD4-independent viral entry

N=C(N)N[C@H]1Cc2ccccc2[C@@H]1NC(=O)C(=O)Nc1ccc(Cl)c(F)c1 [(+)-3]
IC50 [2]: 7.9 µM

N=C(N)N[C@@H]1Cc2ccccc2[C@H]1NC(=O)C(=O)Nc1ccc(Cl)c(F)c1 [(−)-3]
IC50 [2]: 8.9 µM
